Assays:
[1] = biological target: T1, human recombinant kinase full-length wildtype AKT1 (Homo sapiens, UniProt P31749); test: AKT1 kinase assay (wildtype, TR-FRET, Lance); format: biochemical; details: 0.6 nM wildtype AKT1, 50 nM Ulight-CREBtide, either 50 μM ATP or 2 mM ATP, 60 min at RT
T1 construct: Purified human recombinant kinase full-length wildtype AKT1 was expressed in insect cells; made in house; host or cells: insect cells
Method: AKT1 kinase assay: Inhibitory effects of compounds on wildtype AKT1 were undertaken in a 10-pt dose response kinase activity assay measuring phospho-peptide product formation based on TR-FRET signal as described in the following paragraph.
(§1) Purified human recombinant kinase full-length wildtype AKT1 was expressed in insect cells and activated in vitro by PDPK1. Ulight™-CREBtide (PerkinElmer, catalog number TRF0107) was used as the peptide substrate. The reaction buffer consisted of 50 mM HEPES pH 7.5, 10 mM MgCl2, 0.01% Triton X-100, 0.01% BSA, 2 mM DTT, 0.6 nM AKT1,50 nM Ulight™-CREBtide and either 50 μM ATP or 2 mM ATP. The compound solution was prepared as 10 mM DMSO stock. For the assay, a 1:3 serial dilution 10-pt dose response of test compounds, in duplicate, for each concentration were dispensed into a 384-well plate (Corning, catalog number 4513). Final DMSO concentration in the assay was 1%. The enzyme mixture (5 μL, 1.2 nM) were added and the mixture was incubated for 15 min at RT prior to the start of the kinase reaction by the addition of 5 μL substrate mixture (100 nM Ulight™-CREBtide). The reaction was stopped after 60 min of incubation at RT by the addition of 10 μL of Detection Mix (PerkinElmer, #CR97-100) consisting of Europium-anti-phospho-CREB (Ser133) (Perkin Elmer, catalog number TRF0200). Incubation with the detection mix for a further 60 min allowed binding of antibody to the phospho-Ulight™ CREBtide. The fluorescence emissions at 620 nm and 665 nm after excitation at 350 nm was measured using Envision reader. The ratio of the emissions at 665 nm and at 620 nm provided the measure for the amount of phosphorylated CREBtide product of AKT1 kinase activity. To determine the IC50 values, the data was normalized (enzyme reaction without inhibitor=0% inhibition, all other assay components but no enzyme=100% inhibition) and IC50 values were calculated by a 4-parameter fit using an in-house developed protocol.
The symbol +++ represents an IC50 value <20 μM; the symbol ++ represents an IC50 value from ≥20 μM to 80 μM.

[2] = biological target: T2, human recombinant kinase full-length AKT1 E17K (Homo sapiens, UniProt P31749, E17K); test: AKT1 E17K kinase assay (TR-FRET, Lance); format: biochemical; details: 0.6 nM AKT1 E17K, 50 nM Ulight-CREBtide, either 50 μM ATP or 2 mM ATP, 60 min at RT
T2 construct: Purified human recombinant kinase full-length AKT1 E17K was expressed in insect cells; made in house; host or cells: insect cells
T2 sequence (P31749 whole entry E17K): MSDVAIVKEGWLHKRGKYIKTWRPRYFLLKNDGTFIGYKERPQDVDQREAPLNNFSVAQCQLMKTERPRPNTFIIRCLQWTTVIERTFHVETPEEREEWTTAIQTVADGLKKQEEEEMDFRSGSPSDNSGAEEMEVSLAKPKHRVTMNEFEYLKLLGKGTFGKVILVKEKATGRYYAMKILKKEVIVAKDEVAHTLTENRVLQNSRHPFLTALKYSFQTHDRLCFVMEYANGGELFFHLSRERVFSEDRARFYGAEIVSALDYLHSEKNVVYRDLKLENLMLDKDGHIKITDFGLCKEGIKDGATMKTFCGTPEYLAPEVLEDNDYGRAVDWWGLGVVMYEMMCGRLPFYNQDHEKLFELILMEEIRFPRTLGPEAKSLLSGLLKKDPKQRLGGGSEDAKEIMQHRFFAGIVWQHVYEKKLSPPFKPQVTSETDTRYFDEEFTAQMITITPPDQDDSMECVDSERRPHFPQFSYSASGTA
Method: AKT1 E17K kinase assay: Inhibitory effects of compounds on AKT1 E17K were undertaken in a 10-pt dose response kinase activity assay measuring phospho-peptide product formation based on TR-FRET signal as described in the following paragraph.
as §1, with “full-length” for “full-length wildtype”, “AKT1 E17K” for “AKT1”, “AKT1 E17K, 50” for “AKT1,50”, “1.3” for “1:3”
Table 9 assigns each compound a code for potency in the AKT1 E 17K kinase assay: A, B, or C. According to the code, A represents an IC50 value <500 nM; B represents an IC50 value from ≥500 nM to <2000 nM; and C represents an IC50 value ≥2000 nM.

T1 sequence (P31749 whole entry): as the sequence (P31749 whole entry E17K) above, with K17E counted along it

IC50 [1] | IC50 [2] | Structure (SMILES)
< 20 µM | 500 to 2000 nM | Nc1ncccc1-c1nc2ccc(-c3ccccc3)nc2n1-c1ccc(NC(=O)[C@H]2CC[C@H](C(=O)O)CC2)c(F)c1 [Compound I-6, (1r,4r)-4-((4-(2-(2-aminopyridin-3-yl)-5-phenyl-3H-imidazo[4,5-b]pyridin-3-yl)-2-fluorophenyl)carbamoyl)cyclohexane-1-carboxylic acid]
20 to 80 µM | ≥ 2000 nM | Nc1ncccc1-c1nc2ccc(-c3ccccc3)nc2n1-c1ccc(NC(=O)C23CC(C(=O)O)(C2)C3)nc1 [Compound I-7, 3-((5-(2-(2-aminopyridin-3-yl)-5-phenyl-3H-imidazo[4,5-b]pyridin-3-yl)pyridin-2-yl)carbamoyl)bicyclo[1.1.1]pentane-1-carboxylic acid]
< 20 µM | 500 to 2000 nM | Nc1ncccc1-c1nc2ccc(-c3ccccc3)nc2n1-c1ccc(NC(=O)C2CCC(C(=O)O)C2)nc1 (stereo not drawn) [Compound I-8, 3-((5-(2-(2-aminopyridin-3-yl)-5-phenyl-3H-imidazo[4,5-b]pyridin-3-yl)pyridin-2-yl)carbamoyl)cyclopentane-1-carboxylic acid]
< 20 µM | 500 to 2000 nM | Nc1ncccc1-c1nc2ccc(-c3ccccc3)nc2n1-c1ccc(NC(=O)C23CCC(C(=O)O)(C2)C3)nc1 [Compound I-9, 4-((5-(2-(2-aminopyridin-3-yl)-5-phenyl-3H-imidazo[4,5-b]pyridin-3-yl)pyridin-2-yl)carbamoyl)bicyclo[2.1.1]hexane-1-carboxylic acid]
< 20 µM | < 500 nM | Nc1ncccc1-c1nc2ccc(-c3ccccc3)nc2n1-c1ccc(NC(=O)[C@H]2CC[C@H](C(=O)O)CC2)nc1 [Compound I-10, (1r,4r)-4-((5-(2-(2-aminopyridin-3-yl)-5-phenyl-3H-imidazo[4,5-b]pyridin-3-yl)pyridin-2-yl)carbamoyl)cyclohexane-1-carboxylic acid]
< 20 µM | < 500 nM | Nc1ncccc1-c1nc2ccc(-c3ccccc3)nc2n1-c1ccc(NC(=O)C2CCCC(C(=O)O)C2)nc1 (stereo not drawn) [Compound I-11, 3-((5-(2-(2-aminopyridin-3-yl)-5-phenyl-3H-imidazo[4,5-b]pyridin-3-yl)pyridin-2-yl)carbamoyl)cyclohexane-1-carboxylic acid]
< 20 µM | < 500 nM | Nc1ncccc1-c1nc2ccc(-c3ccccc3)nc2n1-c1ccc(NCC2CCC(C(=O)O)CC2)nc1 (stereo not drawn) [Compound I-12, 4-(((5-(2-(2-aminopyridin-3-yl)-5-phenyl-3H-imidazo[4,5-b]pyridin-3-yl)pyridin-2-yl)amino)methyl)cyclohexane-1-carboxylic acid]
< 20 µM | ≥ 2000 nM | Nc1ncccc1-c1nc2ccc(-c3ccccc3)nc2n1-c1ccc(NC2CCC(C(=O)O)C2)nc1 (stereo not drawn) [Compound I-13, 3-((5-(2-(2-aminopyridin-3-yl)-5-phenyl-3H-imidazo[4,5-b]pyridin-3-yl)pyridin-2-yl)amino)cyclopentane-1-carboxylic acid]
< 20 µM | < 500 nM | Nc1ncccc1-c1nc2ccc(-c3ccccc3)nc2n1-c1ccc(C(=O)N[C@H]2CC[C@H](C(=O)O)CC2)cc1 [Compound I-16, (1r,4r)-4-(4-(2-(2-aminopyridin-3-yl)-5-phenyl-3H-imidazo[4,5-b]pyridin-3-yl)benzamido)cyclohexane-1-carboxylic acid]
< 20 µM | 500 to 2000 nM | Nc1ncccc1-c1nc2ccc(-c3ccccc3)nc2n1-c1ccc(C(=O)N[C@H]2CC[C@@H](C(=O)O)CC2)cc1 [Compound I-17, (1s,4s)-4-(4-(2-(2-aminopyridin-3-yl)-5-phenyl-3H-imidazo[4,5-b]pyridin-3-yl)benzamido)cyclohexane-1-carboxylic acid]
< 20 µM | ≥ 2000 nM | Nc1ncccc1-c1nc2ccc(-c3ccccc3)nc2n1-c1ccc(C(=O)N[C@H]2CC[C@@H](C(=O)O)CC2)nc1 [Compound I-18, (1s,4s)-4-(5-(2-(2-aminopyridin-3-yl)-5-phenyl-3H-imidazo[4,5-b]pyridin-3-yl)picolinamido)cyclohexane-1-carboxylic acid]
< 20 µM | ≥ 2000 nM | Nc1ncccc1-c1nc2ccc(-c3ccccc3)nc2n1-c1ccc(C(=O)N[C@H]2CC[C@H](C(=O)O)CC2)nc1 [Compound I-19, (1r,4r)-4-(5-(2-(2-aminopyridin-3-yl)-5-phenyl-3H-imidazo[4,5-b]pyridin-3-yl)picolinamido)cyclohexane-1-carboxylic acid]
< 20 µM | ≥ 2000 nM | Nc1ncccc1-c1nc2ccc(-c3ccccc3)nc2n1-c1ccc(C(=O)N2CCC(C(=O)O)CC2)cc1 [Compound I-20, 1-(4-(2-(2-aminopyridin-3-yl)-5-phenyl-3H-imidazo[4,5-b]pyridin-3-yl)benzoyl)piperidine-4-carboxylic acid]
< 20 µM | ≥ 2000 nM | Nc1ncccc1-c1nc2ccc(-c3ccccc3)nc2n1-c1ccc(C(=O)N2CCCC(C(=O)O)C2)cc1 (stereo not drawn) [Compound I-21, 1-(4-(2-(2-aminopyridin-3-yl)-5-phenyl-3H-imidazo[4,5-b]pyridin-3-yl)benzoyl)piperidine-3-carboxylic acid]
20 to 80 µM | ≥ 2000 nM | Nc1ncccc1-c1nc2ccc(-c3ccccc3)nc2n1-c1ccc(C(=O)N2CCC(C(=O)O)CC2)nc1 [Compound I-22, 1-(5-(2-(2-aminopyridin-3-yl)-5-phenyl-3H-imidazo[4,5-b]pyridin-3-yl)picolinoyl)piperidine-4-carboxylic acid]
20 to 80 µM | ≥ 2000 nM | CC1(C(=O)O)CCN(C(=O)c2ccc(-n3c(-c4cccnc4N)nc4ccc(-c5ccccc5)nc43)cn2)CC1 [Compound I-23, 1-(5-(2-(2-aminopyridin-3-yl)-5-phenyl-3H-imidazo[4,5-b]pyridin-3-yl)picolinoyl)-4-methylpiperidine-4-carboxylic acid]
< 20 µM | ≥ 2000 nM | CC1(C)CN(C(=O)c2ccc(-n3c(-c4cccnc4N)nc4ccc(-c5ccccc5)nc43)cn2)CCC1C(=O)O (stereo not drawn) [Compound I-24, 1-(5-(2-(2-aminopyridin-3-yl)-5-phenyl-3H-imidazo[4,5-b]pyridin-3-yl)picolinoyl)-3,3-dimethylpiperidine-4-carboxylic acid]
< 20 µM | 500 to 2000 nM | Nc1ncccc1-c1nc2ccc(-c3ccccc3)nc2n1-c1ccc(N2CCC(C(=O)O)C2)nc1 (stereo not drawn) [Compound I-25, 1-(5-(2-(2-aminopyridin-3-yl)-5-phenyl-3H-imidazo[4,5-b]pyridin-3-yl)pyridin-2-yl)pyrrolidine-3-carboxylic acid]

Reference: patent US20260200920A1, “SUBSTITUTED AMINOPYRIDINE COMPOUNDS FOR USE AS AKT1 INHIBITORS” (Atavistik Bio, Inc., priority 2023, published 2026)
